Source: US9346798B2, “Dihydrobenzoxazine and tetrahydroquinoxaline sodium channel inhibitors” (AMGEN INC., priority 2012, dated 2016)
Each block holds one compound with its values, some of them ahead of it.

Tests used:
Assay type in all cases: cell-based
Nav 1.7 [1] = molecular target: T1, Nav 1.7 (Homo sapiens (Human), UniProt Q15858); assay: Nav 1.7 in vitro PX assay, PatchXpress whole cell voltage clamp; conditions: HEK 293 cells stably transfected with human Nav1.7; for IC50: partially inactivated state (20 to 50% inactivation)
T1 sequence (Q15858 whole entry): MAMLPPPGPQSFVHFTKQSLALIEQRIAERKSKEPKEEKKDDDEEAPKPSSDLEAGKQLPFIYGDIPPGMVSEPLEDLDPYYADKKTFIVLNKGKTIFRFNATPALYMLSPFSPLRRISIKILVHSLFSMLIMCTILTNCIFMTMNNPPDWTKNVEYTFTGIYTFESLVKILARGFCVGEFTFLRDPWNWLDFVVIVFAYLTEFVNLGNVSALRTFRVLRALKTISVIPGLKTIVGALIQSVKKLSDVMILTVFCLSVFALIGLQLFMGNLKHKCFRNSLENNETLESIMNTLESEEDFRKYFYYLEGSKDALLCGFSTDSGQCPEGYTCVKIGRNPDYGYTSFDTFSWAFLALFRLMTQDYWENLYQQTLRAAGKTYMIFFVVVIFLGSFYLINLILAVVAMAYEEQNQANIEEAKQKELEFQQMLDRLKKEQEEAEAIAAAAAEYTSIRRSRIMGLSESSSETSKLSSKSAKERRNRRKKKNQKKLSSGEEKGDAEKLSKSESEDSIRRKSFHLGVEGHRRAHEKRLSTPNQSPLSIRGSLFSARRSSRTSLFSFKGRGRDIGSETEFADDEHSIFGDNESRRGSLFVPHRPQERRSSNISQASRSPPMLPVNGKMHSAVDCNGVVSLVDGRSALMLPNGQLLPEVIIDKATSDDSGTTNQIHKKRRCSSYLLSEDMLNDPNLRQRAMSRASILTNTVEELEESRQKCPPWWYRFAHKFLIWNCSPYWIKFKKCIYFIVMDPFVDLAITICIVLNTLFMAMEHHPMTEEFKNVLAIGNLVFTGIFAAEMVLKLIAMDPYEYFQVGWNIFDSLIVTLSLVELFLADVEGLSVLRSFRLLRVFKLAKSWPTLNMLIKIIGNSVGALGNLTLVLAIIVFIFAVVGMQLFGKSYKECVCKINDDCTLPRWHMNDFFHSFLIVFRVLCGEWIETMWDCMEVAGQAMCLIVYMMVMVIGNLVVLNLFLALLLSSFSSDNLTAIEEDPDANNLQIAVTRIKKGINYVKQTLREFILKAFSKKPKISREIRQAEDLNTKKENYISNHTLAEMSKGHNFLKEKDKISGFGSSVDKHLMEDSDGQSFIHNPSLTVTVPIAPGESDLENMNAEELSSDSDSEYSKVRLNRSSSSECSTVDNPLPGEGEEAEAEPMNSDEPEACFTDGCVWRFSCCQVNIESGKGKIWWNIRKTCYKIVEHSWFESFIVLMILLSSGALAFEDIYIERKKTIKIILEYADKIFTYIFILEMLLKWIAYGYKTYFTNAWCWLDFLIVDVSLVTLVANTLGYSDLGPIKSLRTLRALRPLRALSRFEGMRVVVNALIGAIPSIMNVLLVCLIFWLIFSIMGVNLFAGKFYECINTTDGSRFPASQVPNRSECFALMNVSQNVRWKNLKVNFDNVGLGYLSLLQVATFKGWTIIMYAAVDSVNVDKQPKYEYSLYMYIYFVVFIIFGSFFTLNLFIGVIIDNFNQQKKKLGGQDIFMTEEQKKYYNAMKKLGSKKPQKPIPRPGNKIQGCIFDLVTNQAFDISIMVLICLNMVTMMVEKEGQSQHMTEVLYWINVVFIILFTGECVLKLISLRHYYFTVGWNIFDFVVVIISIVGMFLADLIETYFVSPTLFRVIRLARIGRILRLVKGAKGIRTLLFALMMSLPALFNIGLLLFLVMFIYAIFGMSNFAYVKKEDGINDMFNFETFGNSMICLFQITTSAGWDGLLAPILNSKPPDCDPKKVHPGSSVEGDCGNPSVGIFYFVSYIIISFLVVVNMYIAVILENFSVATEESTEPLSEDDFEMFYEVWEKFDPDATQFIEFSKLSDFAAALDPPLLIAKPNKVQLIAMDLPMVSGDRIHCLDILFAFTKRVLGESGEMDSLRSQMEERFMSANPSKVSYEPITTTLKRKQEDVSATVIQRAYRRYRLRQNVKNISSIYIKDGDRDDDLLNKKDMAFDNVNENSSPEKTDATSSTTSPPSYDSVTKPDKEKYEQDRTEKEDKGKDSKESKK
In short: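 Partially inactivated channels (20–50% inactivation at holding potential) were probed on automated patch clamp in stably transfected HEK293 cells, stepping to −10 mV for 20 msec every 10 s (0.1 Hz).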

Nav 1.5 = Nav 1.5 (Homo sapiens (Human), UniProt Q14524); assay: Nav 1.5 in vitro assay, IonWorks Quattro (IWQ) population patch-clamp; conditions: HEK 293 cells stably transfected with Nav 1.5; 26th pulse to -20 mV
Chain of Nav 1.5 (Q14524 whole entry): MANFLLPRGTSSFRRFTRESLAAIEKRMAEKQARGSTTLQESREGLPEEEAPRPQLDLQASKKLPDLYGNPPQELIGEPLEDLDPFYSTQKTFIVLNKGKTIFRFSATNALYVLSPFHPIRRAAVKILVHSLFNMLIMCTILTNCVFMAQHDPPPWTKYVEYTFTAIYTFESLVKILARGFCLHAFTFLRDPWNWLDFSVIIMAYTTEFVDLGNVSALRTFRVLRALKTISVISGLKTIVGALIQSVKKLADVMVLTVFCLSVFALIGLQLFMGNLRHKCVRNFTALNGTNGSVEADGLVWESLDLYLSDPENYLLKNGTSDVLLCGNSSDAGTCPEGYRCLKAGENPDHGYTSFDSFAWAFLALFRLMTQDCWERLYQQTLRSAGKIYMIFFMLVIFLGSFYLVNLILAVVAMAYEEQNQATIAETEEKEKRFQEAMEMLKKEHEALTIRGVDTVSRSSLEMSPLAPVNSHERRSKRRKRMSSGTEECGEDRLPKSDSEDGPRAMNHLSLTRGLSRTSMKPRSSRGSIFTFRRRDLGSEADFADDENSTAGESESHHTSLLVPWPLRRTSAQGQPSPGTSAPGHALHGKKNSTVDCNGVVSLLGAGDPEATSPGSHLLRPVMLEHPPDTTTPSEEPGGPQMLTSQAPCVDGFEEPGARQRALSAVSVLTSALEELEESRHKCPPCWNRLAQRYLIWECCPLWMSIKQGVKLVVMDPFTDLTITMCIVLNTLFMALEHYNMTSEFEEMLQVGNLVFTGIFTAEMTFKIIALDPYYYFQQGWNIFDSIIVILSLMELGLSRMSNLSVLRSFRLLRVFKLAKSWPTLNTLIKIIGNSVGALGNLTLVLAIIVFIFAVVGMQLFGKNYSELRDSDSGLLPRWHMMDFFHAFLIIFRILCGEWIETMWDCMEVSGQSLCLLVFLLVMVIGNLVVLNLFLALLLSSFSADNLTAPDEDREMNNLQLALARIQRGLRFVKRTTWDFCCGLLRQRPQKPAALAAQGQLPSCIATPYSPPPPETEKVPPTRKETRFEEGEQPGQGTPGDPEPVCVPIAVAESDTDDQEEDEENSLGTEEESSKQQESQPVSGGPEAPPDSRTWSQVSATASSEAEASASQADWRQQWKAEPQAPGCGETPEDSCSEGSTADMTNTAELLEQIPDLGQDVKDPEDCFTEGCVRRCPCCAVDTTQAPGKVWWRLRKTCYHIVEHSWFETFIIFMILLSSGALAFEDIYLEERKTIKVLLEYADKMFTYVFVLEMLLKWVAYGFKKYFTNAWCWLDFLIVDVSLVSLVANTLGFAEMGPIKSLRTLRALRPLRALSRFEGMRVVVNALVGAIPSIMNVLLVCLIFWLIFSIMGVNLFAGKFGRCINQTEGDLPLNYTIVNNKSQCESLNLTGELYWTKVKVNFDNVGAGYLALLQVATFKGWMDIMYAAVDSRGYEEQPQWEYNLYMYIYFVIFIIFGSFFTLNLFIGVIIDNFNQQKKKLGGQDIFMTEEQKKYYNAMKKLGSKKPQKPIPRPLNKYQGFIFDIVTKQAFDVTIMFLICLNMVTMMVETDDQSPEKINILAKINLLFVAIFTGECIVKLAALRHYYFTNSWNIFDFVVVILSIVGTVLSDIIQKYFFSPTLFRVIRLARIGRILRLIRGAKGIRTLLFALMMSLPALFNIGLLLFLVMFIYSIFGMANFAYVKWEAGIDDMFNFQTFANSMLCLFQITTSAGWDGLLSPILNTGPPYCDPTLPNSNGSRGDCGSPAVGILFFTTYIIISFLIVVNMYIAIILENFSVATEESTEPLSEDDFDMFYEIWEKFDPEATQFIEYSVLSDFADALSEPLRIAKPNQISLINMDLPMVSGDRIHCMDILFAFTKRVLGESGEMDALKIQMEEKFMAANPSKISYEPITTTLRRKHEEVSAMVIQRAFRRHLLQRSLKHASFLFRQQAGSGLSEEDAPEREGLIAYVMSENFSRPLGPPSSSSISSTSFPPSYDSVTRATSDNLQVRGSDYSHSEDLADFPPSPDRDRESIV

Nav 1.7 [2] = molecular target: T1, Nav 1.7; assay: Nav 1.7 in vitro assay, IonWorks Quattro (IWQ) population patch-clamp; conditions: HEK 293 cells stably transfected with Nav 1.7; 26th pulse to -20 mV

- IC50 (Nav 1.7 [1]): 898 nM
- IC50 (Nav 1.7 [2]): 396 nM
SMILES: Cc1cc(C(F)(F)F)ccc1N1CCOc2cc(S(=O)(=O)Nc3nccs3)ccc21 [Example 196, 4-(2-Methyl-4-(Trifluoromethyl)Phenyl)-N-(Thiazol-2-Yl)-3,4-Dihydro-2H-Benzo[B][1,4]Oxazine-7-Sulfonamide]
- IC50 (Nav 1.5): 5700 nM

- IC50 (Nav 1.7 [1]): 469 nM
- IC50 (Nav 1.7 [2]): 87.5 nM
SMILES: CCc1ccc(N2CCOc3cc(S(=O)(=O)Nc4nccs4)ccc32)c(C#N)c1 [Example 203, 4-(2-Cyano-4-Ethylphenyl)-N-(Thiazol-2-Yl)-3,4-Dihydro-2H-Benzo[B][1,4]Oxazine-7-Sulfonamide]
- IC50 (Nav 1.5): 1090 nM

- IC50 (Nav 1.7 [1]): 4510 nM
- IC50 (Nav 1.7 [2]): 1490 nM
SMILES: COc1cnccc1N1CCOc2cc(S(=O)(=O)Nc3nccs3)ccc21 [Example 158, 4-(3-methoxypyridin-4-yl)-N-(thiazol-2-yl)-3,4-dihydro-2H-benzo[b][1,4]oxazine-7-sulfonamide]
- IC50 (Nav 1.5): > 10000 nM

- IC50 (Nav 1.7 [1]): 91.4 nM
- IC50 (Nav 1.7 [2]): 16 nM
SMILES: N#Cc1cc(C(F)(F)F)ccc1N1CCOc2cc(S(=O)(=O)Nc3ncns3)ccc21 [Example 31, 4-(2-Cyano-4-(Trifluoromethyl)Phenyl)-N-(1,2,4-Thiadiazol-5-Yl)-3,4-Dihydro-2H-Benzo[B][1,4]Oxazine-7-Sulfonamide]
- IC50 (Nav 1.5): 1460 nM

- IC50 (Nav 1.7 [1]): 1650 nM
- IC50 (Nav 1.7 [2]): 288 nM
SMILES: Cc1cc(N2CCOc3cc(S(=O)(=O)Nc4nccs4)ccc32)ccc1F [Example 81, 4-(4-Fluoro-3-Methylphenyl)-N-(Thiazol-2-Yl)-3,4-Dihydro-2H-Benzo[B][1,4]Oxazine-7-Sulfonamide 2,2,2-Trifluoroacetate]
- IC50 (Nav 1.5): > 10000 nM

- IC50 (Nav 1.7 [1]): 5290 nM
- IC50 (Nav 1.7 [2]): 635 nM
SMILES: O=S(=O)(Nc1nccs1)c1ccc2c(c1)OCCN2c1cncc(Cl)c1 [Example 130, 4-(5-Chloropyridin-3-yl)-N-(thiazol-2-yl)-3,4-dihydro-2H-benzo[b][1,4]oxazine-7-sulfonamide]
- IC50 (Nav 1.5): 6200 nM

- IC50 (Nav 1.7 [1]): 3250 nM
- IC50 (Nav 1.7 [2]): 643 nM
SMILES: Cc1ccc(C(C)C)c(N2CCOc3cc(S(=O)(=O)Nc4nccs4)ccc32)c1 [Example 168, 4-(2-Isopropyl-5-Methylphenyl)-N-(Thiazol-2-Yl)-3,4-Dihydro-2H-Benzo[B][1,4]Oxazine-7-Sulfonamide 2,2,2-Trifluoroacetate]
- IC50 (Nav 1.5): > 10000 nM

- IC50 (Nav 1.7 [1]): 894 nM
- IC50 (Nav 1.7 [2]): 53.5 nM
SMILES: COc1cc(Cl)ccc1N1C[C@@H](C)Oc2cc(S(=O)(=O)Nc3nccs3)ccc21 (single isomer, unassigned) [Example 105]
- IC50 (Nav 1.5): > 10000 nM

- IC50 (Nav 1.7 [1]): 9070 nM
- IC50 (Nav 1.7 [2]): 1010 nM
SMILES: COc1cnc(N2CCOc3cc(S(=O)(=O)Nc4nccs4)ccc32)c(OC)n1 [Example 143, 4-(3,5-Dimethoxypyrazin-2-yl)-N-(thiazol-2-yl)-3,4-dihydro-2H-benzo[b][1,4]oxazine-7-sulfonamide]
- IC50 (Nav 1.5): > 10000 nM

The remaining lines, values behind:

SMILES: O=S(=O)(Nc1nccs1)c1ccc2c(c1)OCCN2c1ccc(C(F)(F)F)cc1C[C@@H](O)CO (single isomer, unassigned) [Example 209]
- IC50 (Nav 1.7 [1]): 165 nM
- IC50 (Nav 1.5): 497 nM
- IC50 (Nav 1.7 [2]): 12.5 nM

SMILES: O=S(=O)(Nc1nccs1)c1ccc2c(c1)OCCN2c1ccc(C(F)(F)F)cc1CCO [Example 211, 4-(2-(2-Hydroxyethyl)-4-(Trifluoromethyl)Phenyl)-N-(Thiazol-2-Yl)-3,4-Dihydro-2H-Benzo[B][1,4]Oxazine-7-Sulfonamide]
- IC50 (Nav 1.7 [1]): 229 nM
- IC50 (Nav 1.5): 471 nM
- IC50 (Nav 1.7 [2]): 5.5 nM

SMILES: O=S(=O)(Nc1cccnn1)c1ccc2c(c1)OCCN2c1ccc(C(F)(F)F)cc1Cl [Example 27, 4-(2-Chloro-4-(Trifluoromethyl)Phenyl)-N-(Pyridazin-3-Yl)-3,4-Dihydro-2H-Benzo[B][1,4]Oxazine-7-Sulfonamide]
- IC50 (Nav 1.7 [1]): 10700 nM
- IC50 (Nav 1.5): > 10000 nM
- IC50 (Nav 1.7 [2]): 1250 nM

SMILES: N#Cc1cc(C(F)(F)F)ccc1N1CCOc2cc(S(=O)(=O)Nc3ccno3)ccc21 [Example 91, 4-(2-Cyano-4-(Trifluoromethyl)Phenyl)-N-(Isoxazol-5-Yl)-3,4-Dihydro-2H-Benzo[B][1,4]Oxazine-7-Sulfonamide]
- IC50 (Nav 1.7 [1]): 9210 nM
- IC50 (Nav 1.5): > 10000 nM
- IC50 (Nav 1.7 [2]): 3640 nM

SMILES: O=S(=O)(Nc1cnccn1)c1ccc2c(c1)OCCN2c1ccc(C(F)(F)F)cc1C1=CCNCC1 [Example 88, N-(Pyrazin-2-Yl)-4-(2-(1,2,3,6-Tetrahydropyridin-4-Yl)-4-(Trifluoromethyl)Phenyl)-3,4-Dihydro-2H-Benzo[B][1,4]Oxazine-7-Sulfonamide]
- IC50 (Nav 1.7 [1]): 737 nM
- IC50 (Nav 1.5): > 10000 nM
- IC50 (Nav 1.7 [2]): 224 nM

SMILES: N#Cc1cc(-c2cccc(F)c2)ccc1N1CCOc2cc(S(=O)(=O)Nc3nccs3)ccc21 [Example 200, 4-(3-Cyano-3′-Fluoro-[1,1′-Biphenyl]-4-Yl)-N-(Thiazol-2-Yl)-3,4-Dihydro-2H-Benzo[B][1,4]Oxazine-7-Sulfonamide]
- IC50 (Nav 1.7 [1]): 150 nM
- IC50 (Nav 1.5): 854 nM
- IC50 (Nav 1.7 [2]): 144 nM

SMILES: O=S(=O)(Nc1ccccn1)c1ccc2c(c1)OCCN2c1ccc(C(F)(F)F)cc1C1=CCNCC1 [Example 62, N-(Pyridin-2-Yl)-4-(2-(1,2,3,6-Tetrahydropyridin-4-Yl)-4-(Trifluoromethyl)Phenyl)-3,4-Dihydro-2H-Benzo[B][1,4]Oxazine-7-Sulfonamide]
- IC50 (Nav 1.7 [1]): 282 nM
- IC50 (Nav 1.5): > 10000 nM
- IC50 (Nav 1.7 [2]): 49 nM

SMILES: Cc1cc(N2CCOc3cc(S(=O)(=O)Nc4nccs4)ccc32)c(C)cn1 [Example 134, 4-(2,5-Dimethylpyridin-4-yl)-N-(thiazol-2-yl)-3,4-dihydro-2H-benzo[b][1,4]oxazine-7-sulfonamide]
- IC50 (Nav 1.7 [1]): 17100 nM
- IC50 (Nav 1.5): > 10000 nM
- IC50 (Nav 1.7 [2]): 1340 nM

SMILES: O=S(=O)(Nc1ncns1)c1ccc2c(c1)OCCN2c1cccc(OC(F)(F)F)c1 [Example 35, N-(1,2,4-Thiadiazol-5-Yl)-4-(3-(Trifluoromethoxy)Phenyl)-3,4-Dihydro-2H-Benzo[B][1,4]Oxazine-7-Sulfonamide]
- IC50 (Nav 1.7 [1]): 138 nM
- IC50 (Nav 1.5): > 10000 nM
- IC50 (Nav 1.7 [2]): 43.5 nM

SMILES: O=S(=O)(Nc1nccs1)c1ccc2c(c1)OCCN2c1ccc2nccnc2c1 [Example 69, 4-(Quinoxalin-6-Yl)-N-(Thiazol-2-Yl)-3,4-Dihydro-2H-Benzo[B][1,4]Oxazine-7-Sulfonamide 2,2,2-Trifluoroacetate]
- inhibition at 4.9 µM (Nav 1.7 [1]; HEK293, values marked *, 4.9 μM, read-out: Nav 1.7 PX percent inhibition at 4.9 μM): 33.9%
- IC50 (Nav 1.5): 4440 nM
- IC50 (Nav 1.7 [2]): 3780 nM

SMILES: O=S(=O)(Nc1ncns1)c1ccc2c(c1)OCCN2c1ccc(C(F)(F)F)cc1-c1cncnc1 [Example 23, 4-(2-(Pyrimidin-5-Yl)-4-(Trifluoromethyl)Phenyl)-N-(1,2,4-Thiadiazol-5-Yl)-3,4-Dihydro-2H-Benzo[B][1,4]Oxazine-7-Sulfonamide]
- IC50 (Nav 1.7 [1]): 659 nM
- IC50 (Nav 1.5): 5410 nM
- IC50 (Nav 1.7 [2]): 29.8 nM

SMILES: O=S(=O)(Nc1ncccn1)c1ccc2c(c1)OCCN2c1ccc(C(F)(F)F)cc1C1=CCNCC1 [Example 86, N-(Pyrimidin-2-Yl)-4-(2-(1,2,3,6-Tetrahydropyridin-4-Yl)-4-(Trifluoromethyl)Phenyl)-3,4-Dihydro-2H-Benzo[B][1,4]Oxazine-7-Sulfonamide]
- IC50 (Nav 1.7 [1]): 851 nM
- IC50 (Nav 1.5): 2260 nM
- IC50 (Nav 1.7 [2]): 320 nM

SMILES: N#Cc1cc(C(F)(F)F)ccc1N1CCOc2c1ccc(S(=O)(=O)Nc1nccs1)c2F [Example 216, 4-(2-Cyano-4-(Trifluoromethyl)Phenyl)-8-Fluoro-N-(Thiazol-2-Yl)-3,4-Dihydro-2H-Benzo[B][1,4]Oxazine-7-Sulfonamide]
- IC50 (Nav 1.7 [1]): 516 nM
- IC50 (Nav 1.5): 5730 nM
- IC50 (Nav 1.7 [2]): 34 nM
